This note sets out measurements from patent US12570612B2, “Substituted nitrogen heterocyclic compound and anesthetic effect thereof” (priority 2019, dated 2026).

pEC50: −log10 of the molar value. Entries after “also recorded” stand apart in the source; their conditions may differ. Where two headings read alike, the source gives them in different places.

Series [1] concerns H295R cell line. In words: Adrenocortical function in vitro test: secretion of cortisol and corticosterone, Group A compounds. It counts as cell-based. The note with it: H295 cells; for pEC50: 0.1-10000 nM, HPLC-MS/MS.
For series [2], the system named is Sprague-Dawley rats. Kind of series: Pharmacological characteristics at equivalent doses (2ED50), Group A compounds. Set-up: Sedation duration: unit not given here. The note with it: 2ED50, tail vein; for Types and incidence of adverse reactions: (animals affected/animals). The series is classed as in vivo.
Series [3] deals with Sprague-Dawley rats. Kind of series: animal or person. The note with it: for Approximate therapeutic index / Minimal lethal dose: rats. As for the experimental part: Adult male Sprague-Dawley rats (250-300 g) were selected for the experiment. […] The anesthesia effects of the compounds were assessed in rats using a LORR assay and a period >30 s was considered as an indicator of general anesthesia.

Setting [4] is: Homo sapiens, read-out: EC50 (Corticosterone).
Setting [5] is: Homo sapiens, read-out: EC50 (Cortisol).

Turning to `C=C=CC1(OC(=O)c2c(F)c(F)nn2[C@H](C)c2ccccc2)COC1` [Compound A92], in series [1], the “Corticosterone as an indicator to determine the presence of inhibition” value (“Corticosterone as an indicator … of inhibition” for short) is reported as 0 and the “Cortisol as an indicator to determine the presence of inhibition” value (shortened to “Cortisol as an indicator … of inhibition”) is on record as 0. Further, in series [1] (setting [4]), the pEC50 is below 6.00. Also, in series [1] (setting [5]), the pEC50 was below 6.00. In addition, in series [2], the Onset time came out at 0.43 ± 0.22 min; the Righting reflex duration is given as 2.03 ± 0.33 min; the “Types and incidence of adverse reactions” value was “Red and urine(8/8), Tremor(2/8), and Euphoria(1/8)”. The molecule also returned an ED50 in series [3] (Rattus norvegicus) of 0.04 to 0.5 mg/kg. In series [3], the Approximate therapeutic index was above 14 and the Minimal lethal dose is listed as above 1 mg/kg.
For `C[C@H](c1ccccc1)n1nc(F)cc1C(=O)OC(C)(C)C` [Compound A57], in series [1], the “Corticosterone as an indicator … of inhibition” value worked out at 0 and the “Cortisol as an indicator … of inhibition” value stood at 0. The pEC50 in series [1] (setting [4]) is below 7.00. Further, the pEC50 in series [1] (setting [5]) was below 7.00. Also, in series [2], the Onset time was found to be 0.42 ± 0.16 min; the Righting reflex duration is 1.48 ± 0.51 min; the “Types and incidence of adverse reactions” value was “Red and urine(7/7), GeneralTremor and (2/7), Tetany and convulsion(2/7)”. This molecule yielded an ED50 in series [3] (Rattus norvegicus) of 2 to 6 mg/kg. In series [3], this molecule showed an Approximate therapeutic index above 7 and a Minimal lethal dose above 15 mg/kg.
In the case of `CCOC(=O)c1cc(F)nn1[C@H](C)c1ccccc1` [Compound A49], in series [1], the “Corticosterone as an indicator … of inhibition” value is recorded as 0 and the “Cortisol as an indicator … of inhibition” value is on record as 0. For the same molecule, the pEC50 in series [1] (setting [4]) was below 7.00. Also, the pEC50 in series [1] (setting [5]) was below 7.00. Besides, in series [2], the Onset time is reported as 0.28 ± 0.04 min; the Righting reflex duration worked out at 2.69 ± 1.18 min; the “Types and incidence of adverse reactions” value was “Red urine(8/8), Hindlimb; also recorded: rigidity (2/8), broken-; also recorded: winded(1/8), Tremor(3/8)”. Moreover, in series [3] (Rattus norvegicus), the ED50 was in the range of 2 to 6 mg/kg. In series [3], this molecule came in with an Approximate therapeutic index above 2 and a Minimal lethal dose above 9 mg/kg.
For `C[C@H](c1ccccc1)n1nccc1C(=O)OCC1CC1` [Compound A3], in series [1], the “Corticosterone as an indicator … of inhibition” value is reported as 0 and the “Cortisol as an indicator … of inhibition” value was 0. In series [1] (read-out: EC50 (Corticosterone)), the pEC50 was below 6.00. In addition, the pEC50 in series [1] (read-out: EC50 (Cortisol)) was below 6.00. For the same molecule, in series [2], the Onset time was 0.13 ± 0.04 min; the Righting reflex duration amounted to 2.73 ± 1.08 min; the Sedation duration is reported as 5.76 ± 0.80; the “Types and incidence of adverse reactions” value is “Red urine(8/8), Hindlimb; also recorded: rigidity (1/8)”. Besides, the ED50 entry in series [3] (LORR in rats, tail vein, brackets = 95% confidence limit) is “C (C indicates that the measured ED50 is in the range of 1.00-2.00 mg/kg (excluding 1.00 mg/kg, including 2.00 mg/kg))”. In addition, in series [3], the Approximate therapeutic index is listed as above 6 and the Minimal lethal dose was above 8 mg/kg.
On to `CC(=O)C1=C(OC(=O)c2ccnn2[C@H](C)c2ccccc2)CCC1` [Compound A18], for which, in series [1], the “Corticosterone as an indicator … of inhibition” value was determined as 0 and the “Cortisol as an indicator … of inhibition” value is reported as 0. In series [1] (setting [4]), the pEC50 is below 7.00. Moreover, the pEC50 in series [1] (setting [5]) is below 7.00. Also, in series [2], the Onset time stood at 0.73 ± 0.10 min; the Righting reflex duration is 1.19 ± 0.64 min; the “Types and incidence of adverse reactions” value is on record as “Red urine(8/8), Hindlimb; also recorded: rigidity(5/8)”. Also, in series [3] (Rattus norvegicus), the ED50 was in the range of 2 to 6 mg/kg. In addition, in series [3], the Approximate therapeutic index is above 3 and the Minimal lethal dose was above 8 mg/kg.
Take `CCOC(=O)c1ccnn1[C@H](C)c1ccccc1` [Compound A1]: in series [1], the “Corticosterone as an indicator … of inhibition” value is 0 and the “Cortisol as an indicator … of inhibition” value is given as 0. In addition, the pEC50 in series [1] (setting [4]) was below 6.00. Further, the pEC50 in series [1] (setting [5]) is below 6.00. In series [2], the Onset time is given as 0.56 ± 0.26 min and the Righting reflex duration is on record as 2.24 ± 1.29 min. The median effective dose (ED50) in series [3] (Rattus norvegicus) fell in the range of 1 to 2 mg/kg. In series [3], this molecule showed an Approximate therapeutic index above 8 and a Minimal lethal dose above 16 mg/kg.
As to `C[C@H](c1ccccc1)n1nccc1C(=O)OC1CSC1` [Compound A6], in series [1], the “Corticosterone as an indicator … of inhibition” value is given as 0 and the “Cortisol as an indicator … of inhibition” value worked out at 0. Moreover, in series [1] (setting [4]), the pEC50 was below 6.00. In addition, the pEC50 in series [1] (setting [5]) was below 6.00. Further, in series [2], the Onset time is recorded as 0.38 ± 0.12 min; the Righting reflex duration came out at 3.81 ± 2.17 min; the “Types and incidence of adverse reactions” value is reported as “Red urine(8/8), Facial; also recorded: muscle; also recorded: twitching(2/8), Hindlimb; also recorded: rigidity (1/8)”. For the same molecule, the ED50 in series [3] (Rattus norvegicus) was 2 to 6 mg/kg. In series [3], this molecule had an Approximate therapeutic index above 5 and a Minimal lethal dose above 13 mg/kg.
Turning to `C=CC1(OC(=O)c2c(F)cnn2[C@H](C)c2ccccc2)COC1` [Compound A87], in series [1], the “Corticosterone as an indicator … of inhibition” value was 0 and the “Cortisol as an indicator … of inhibition” value worked out at 0. Further, in series [1] (setting [4]), the pEC50 was below 6.00. Also, the pEC50 in series [1] (setting [5]) is below 6.00. Further, in series [2], the Onset time was 0.30 ± 0.12 min and the Righting reflex duration was 2.21 ± 0.24 min. In series [3] (Rattus norvegicus), the ED50 was 0.5 to 1 mg/kg. Further, in series [3], the Approximate therapeutic index is reported as above 18 and the Minimal lethal dose is reported as above 13 mg/kg.
Regarding `CC#CC(C)OC(=O)c1ccnn1[C@H](C)c1ccccc1` (stereo partly drawn) [Compound A11], in series [1], the “Corticosterone as an indicator … of inhibition” value came to 0 and the “Cortisol as an indicator … of inhibition” value is recorded as 0. Moreover, in series [1] (setting [4]), the pEC50 is below 7.00. For the same molecule, the pEC50 in series [1] (setting [5]) is below 7.00. For the same molecule, in series [2], the Onset time stood at 0.41 ± 0.15 min; the Righting reflex duration is 2.65 ± 1.10 min; the “Types and incidence of adverse reactions” value was “Red urine(6/6), General; also recorded: Tremor(4/6), Hindlimb; also recorded: rigidity (2/6),; also recorded: Convulsion(1/6),; also recorded: Euphoria(1/6)”. Moreover, in series [3] (Rattus norvegicus), the ED50 is 1 to 2 mg/kg. In addition, in series [3], the Approximate therapeutic index is reported as above 4 and the Minimal lethal dose is reported as above 8 mg/kg.
In the case of `CCOC(=O)c1c(F)cnn1[C@H](C)c1ccccc1` [Compound A70], in series [1], the “Corticosterone as an indicator … of inhibition” value is listed as 0 and the “Cortisol as an indicator … of inhibition” value came to 0. Besides, the pEC50 in series [1] (setting [4]) is below 7.00. Further, the pEC50 in series [1] (setting [5]) is below 7.00. Further, in series [2], the Onset time was 0.31 ± 0.08 min and the Righting reflex duration was determined as 2.51 ± 1.03 min. The molecule also showed an ED50 in series [3] (Rattus norvegicus) of 1 to 2 mg/kg. In addition, in series [3], the Approximate therapeutic index is reported as above 6 and the Minimal lethal dose is above 12 mg/kg.
With `CO[C@H]1C[C@@H](OC(=O)c2c(F)c(F)nn2[C@H](C)c2ccccc2)C1` [Compound A94], in series [1], the “Corticosterone as an indicator … of inhibition” value worked out at 0 and the “Cortisol as an indicator … of inhibition” value was 0. Also, in series [1] (setting [4]), the pEC50 is below 6.00. Also, in series [1] (setting [5]), the pEC50 was below 6.00. In series [2], the Onset time is listed as 0.33 ± 0.12 min; the Righting reflex duration is 1.26 ± 0.40 min; the “Types and incidence of adverse reactions” value was “Red and urine(8/8), Tremor(3/8), and Four limbs and rigidity(2/8), Euphoria(1/8)”. In addition, in series [3] (Rattus norvegicus), the ED50 is 0.5 to 1 mg/kg. In series [3], this molecule gave an Approximate therapeutic index above 12 and a Minimal lethal dose above 12 mg/kg.
With `CO[C@H]1C[C@@H](OC(=O)c2ccnn2[C@H](C)c2ccccc2)C1` [Compound A25], in series [1], the “Corticosterone as an indicator … of inhibition” value was 0 and the “Cortisol as an indicator … of inhibition” value was determined as 0. The pEC50 in series [1] (setting [4]) was below 6.00. Further, the pEC50 in series [1] (setting [5]) was below 6.00. Besides, in series [2], the Onset time was 0.50 ± 0.12 min; the Righting reflex duration turned out to be 2.6 ± 0.83 min; the “Types and incidence of adverse reactions” value is “Red urine(8/8), Hindlimb; also recorded: rigidity (2/8), Tremor(1/8)”. In addition, in series [3] (Rattus norvegicus), the ED50 was in the range of 0.04 to 0.5 mg/kg. In series [3], the Approximate therapeutic index is recorded as above 21 and the Minimal lethal dose is above 5 mg/kg.
Turning to `C=CC1(OC(=O)c2ccnn2[C@H](C)c2ccccc2)COC1` [Compound A34], in series [1], the “Corticosterone as an indicator … of inhibition” value was found to be 0 and the “Cortisol as an indicator … of inhibition” value worked out at 0. Besides, in series [1] (setting [4]), the pEC50 is below 6.00. The pEC50 in series [1] (setting [5]) is below 6.00. Further, in series [2], the Onset time was determined as 0.60 ± 0.32 min; the Righting reflex duration is reported as 1.6 ± 0.43 min; the “Types and incidence of adverse reactions” value is reported as “Red urine(8/8), Hindlimb; also recorded: rigidity(2/8), Tremor(1/8)”. Moreover, the ED50 in series [3] (Rattus norvegicus) lay within 0.5 to 1 mg/kg. In series [3], this molecule came in with an Approximate therapeutic index above 6 and a Minimal lethal dose above 4 mg/kg.
Turning to `C=CC#CC(C)OC(=O)c1ccnn1[C@H](C)c1ccccc1` (stereo partly drawn) [Compound A15], in series [1], the “Corticosterone as an indicator … of inhibition” value is given as 0 and the “Cortisol as an indicator … of inhibition” value is given as 0. For the same molecule, in series [1] (setting [4]), the pEC50 was below 7.00. In addition, the pEC50 in series [1] (setting [5]) is below 7.00. In series [2], the Onset time worked out at 0.40 ± 0.10 min; the Righting reflex duration is recorded as 1.82 ± 0.76 min; the “Types and incidence of adverse reactions” value is recorded as “Red urine(8/8),; also recorded: Euphoria(2/8), Hindlimb; also recorded: rigidity(2/8), Hindlimb; also recorded: Tremor(1/8)”. Besides, in series [3] (Rattus norvegicus), the ED50 was in the range of 2 to 6 mg/kg. Also, in series [3], the Approximate therapeutic index was above 4 and the Minimal lethal dose was above 9 mg/kg.
On to `CC#CC(C)(C)OC(=O)c1c(F)cnn1[C@H](C)c1ccccc1` [Compound A83], for which, in series [1], the “Corticosterone as an indicator … of inhibition” value is 0 and the “Cortisol as an indicator … of inhibition” value stood at 0. In series [1] (setting [4]), the pEC50 is below 6.00. Also, the pEC50 in series [1] (setting [5]) is below 6.00. In addition, in series [2], the Onset time came out at 0.43 ± 0.32 min and the Righting reflex duration was found to be 3.21 ± 0.41 min. Besides, the ED50 in series [3] (Rattus norvegicus) lay in the range of 1 to 2 mg/kg. In series [3], this molecule had an Approximate therapeutic index above 10 and a Minimal lethal dose above 12 mg/kg.
